The values that follow come from patent US9359281B2, “Enantiomers of 2-hydroxy derivatives of fatty acids” (UNIVERSITAT DE LES ILLES BALEARS, priority 2011, dated 2016).

One assay concerns HT29 cells. The assay can be described thus: Levels of SM in cell membranes, HT29. Particulars: HT29, 200 μM [−]2OHOA. Format: cell-based, human. As for the experimental part: (§1) The levels of SM, cultivated in the absence (control) or presence of 200 μM of [−]2OHOA, in normal cell membranes (MRC-5 and IMR90) were measured, and also in several types of tumoral cells (see Table 2). In all cases, we detected that the membranes of tumoral cells have SM levels of about half or a third of that in normal cells (FIG. 1). We can therefore assert that SM concentration is a biomarker which indicates tumorgenesis in human cells. On the other hand, treatments with the molecules of the present invention induce an increase of SM in the tumour cells which is not naturally occurring. […] For example, the spectrophotometry determination of solution fluorescence of the SM levels is a very simple, quick and efficient analysis method (FIG. 1D). Thus, this invention has generated a method for diagnosis for detecting the described pathological processes and pathologies in which there are SM level changes, and also for monitoring the efficiency of the therapy using molecules of the present invention and others of similar activity. Based on this knowledge, this invention also includes kits for diagnosing these diseases.

Another assay relates to HepG2 cells. In words: Levels of SM in cell membranes, HepG2. It counts as cell-based, human. The conditions noted are these: HepG2, 200 μM [−]2OHOA. As for the experimental part:
as §1

The subject of another assay is SF268 cells. In words: Cell growth inhibition, SF268. It counts as cell-based, human. Also noted: key: +: inhibition of cell growth; −: absence of effect.
In a further assay the test system is PC3 cells. The assay can be described thus: Levels of SM in cell membranes, PC3. Format: cell-based, human. The conditions noted are these: PC3, 200 μM [−]2OHOA. How it is done:
as §1

Assay [1] concerns A172 cells. In words: Levels of SM in cell membranes, A172. Particulars: A172, 200 μM [−]2OHOA. Format: cell-based, human. As for the experimental part: as §1
A further assay relates to U937 cells. In words: Levels of SM in cell membranes, U937. It counts as cell-based, human. The conditions noted are these: U937, 200 μM [−]2OHOA. How it is done:
as §1

Another assay relates to C-6 cells. In words: Levels of SM in cell membranes, C-6. It counts as cell-based. The conditions noted are these: C-6 rat glioma, 200 μM [−]2OHOA. How it is done:
as §1

In the next assay the test system is T98G cells. The assay can be described thus: Cell growth inhibition, T98G. Also noted: key: +: inhibition of cell growth; −: absence of effect. Format: cell-based, human.
A further assay relates to SH-SYSY cells. In words: Levels of SM in cell membranes, SH-SYSY. Particulars: 200 μM [−]2OHOA. It counts as cell-based, human. As for the experimental part:
as §1

In the next assay the test system is U87 cells. The assay can be described thus: Levels of SM in cell membranes, U87. Format: cell-based, human. The conditions noted are these: U87, 200 μM [−]2OHOA. How it is done:
as §1

For assay [2], the system named is A172 cells. The assay can be described thus: Cell growth inhibition, A172. Format: cell-based, human. Also noted: key: +: inhibition of cell growth; −: absence of effect.
For the next assay, the system named is enzyme EC 2.3.1.50. In words: [3H]palmitate incorporation in lipid fractions of U118 cells. Format: cell-based, human. Particulars: U118, 24 h. Also noted: dose or concentration left out as unconfirmed. As for the experimental part:
FIG. 9. Regulation of the activity of enzyme 2.3.1.50.
We incubated human glioma cells U118 in the presence or absence (control) of 2OHOA ([…], 24 h) and later incubated them with [^3H]palmitate for 5 minutes. After these periods of incubation, we extracted the cellular lipids and separated them by TLC. The bands correspond to each species of lipid extracted and the amount of radioactive palmitate incorporated was measured by liquid shining. As we can see, not only was there an important incorporation of the fraction of the SM (an indicator of the activity of enzyme EC 2.7.8.27), but also in the fraction of the ceramide, which indicates activity of enzyme EC 2.3.1.50 (serin-palmitoil transferase).

For another assay, the system named is U118 cells. The assay can be described thus: Nuclear SM levels in U118 cells. It counts as cell-based, human. The conditions noted are these: U118, 200 μM, 24 hours. As for the experimental part:
FIG. 3. Compound 2OHOA induces an increase in nuclear SM. U118 cancer cells were treated for 24 hours with a vehicle (control) or with 2OHOA at a concentration of 200 μM. The values of the ordinate axis represent the average±ESM (n=3-5) of levels of SM compared to the untreated control (100%).
Another effect associated to the reduction in cell proliferation is an increase in the levels of nuclear SM.

A further assay has as its system enzyme EC 2.7.8.27. In words: Activity of enzyme EC 2.7.8.27 in cellular extracts (NBD-Cer). It counts as biochemical. The conditions noted are these: homogenised cells, 200 μM, NBD-Cer 2 hours. As for the experimental part: FIG. 4. Compound 2OHOA acts directly on enzyme EC 2.7.8.27. In A, B, C, in all cases, we incubated cells or cellular extracts or means of incubation with the fluorescent stratum of this enzyme NBD-Cer (nitro-benzoxadiazol-il) ceramide], in the presence or absence (control, white bars) of 2OHOA (black bars). Then, we extracted the lipids and determined the levels of formation of NBD-SM per HPTLC (HP-TLC, high performance thin layer chromatography). The values are presented on the ordinate axis as the average±ESM (n=3-5).
B. In vitro experiment of the activity of enzyme EC 2.7.8.27 in cellular extracts, where we measured the activity of the enzyme after killing the cells. […] For these experiments, homogenised cells were incubated with compound 2OHOA (200 μM) and NBD-Cer for 2 hours.

The next assay has as its system Ras protein. In words: Ras translocation from membrane to cytoplasm by confocal microscopy. It counts as cell-based. The conditions noted are these: human glioma, lung cancer and leukaemia cells. As for the experimental part: The high levels of 2OHOA and SM in the membrane impede the anchoring of the Ras protein on the membrane.
2OHOA increases levels of SM in tumoral cells treated as explained above. […] SM is lipid in the membrane which impedes the bonding of certain molecules involved in the proliferation of cells, such as the Ras protein. In this way, levels of Ras were measured by confocal microscopy, using an antibody marked fluorescently, and we were able to detect that the marker passed from the membrane (FIG. 6: 95-99% of total detected fluorescence in the membrane before treatment) to the cytoplasm (94-97% of fluorescence detected in the inside of the cell after treatment with 2OHOA) in human glioma, lung cancer and leukaemia cells. The translocation of Ras from the membrane to the cytoplasm means an absence of productive interaction between Ras and Receptor-Tirosine-Kinase (RTK) or between Ras and Raf, so the proteins in MAP kinase chain are not activated and the tumoral cells cease to proliferate and programmed cell death starts. Changes in cell physiology induced by the molecules of present invention, have as intermediate effects (prior to the cancer cells death or the regulation of the activity in other cells), the induction of dramatic reductions in DHFR levels and dramatic increases of GFAP levels (FIG. 6).

As for `CCCCCCCC/C=C\CCCCCCC(O)C(=O)O` (stereo not drawn) [[−]2OHOA] [[−] HOOC—HOCH—(CH2)6—(CH═CH—CH2)1—(CH2)6—CH3], the “% SM after treatment” value in the assay on HT29 cells is on record as 21%; with HepG2 cells, 35%; in the assay on PC3 cells it was 27%; in the assay on A172 cells [1], 23%; with U937 cells, 24%; in the assay on C-6 cells, 20%. Besides, the entries for the “% SM after treatment” value in the assay on SH-SYSY cells and in the assay on U87 cells were 22% and 21%, respectively. The “Effect (anti-proliferation effect)” value with SF268 cells, in the assay with T98G cells and in the assay on A172 cells [2] was “+” in each case.

Consider `CCCCCCCC/C=C\CCCCCCC(O)C(=O)O` (racemic) [2OHOA, 2-hydroxyoleic acid], for which the “activity of enzyme EC 2.3.1.50 ([3H]palmitate in ceramide fraction)” value in the assay with enzyme EC 2.3.1.50 is “specific activator of enzyme EC 2.3.1.50”. Also, the “level of nuclear SM” value with U118 cells is “increases in the level of nuclear SM”. Further, the “activation of enzyme EC 2.7.8.27 in cellular extracts” value in the assay on enzyme EC 2.7.8.27 is recorded as “able to activate enzyme EC 2.7.8.27 by direct interaction”. The “Ras fluorescence detected in the inside of the cell after treatment” value in the assay on Ras protein is on record as 94-97%.
